US5658939A, “Methionine sulfone and S-substituted cysteine sulfone derivatives as enzyme inhibitors” (Corvas International Inc., priority 1995, dated 1997)
Where two headings read alike, the source gives them in different places.

Assays:
[1] = biological target: Purified human alpha-thrombin (Homo sapiens, UniProt P00734); assay: in vitro thrombin inhibition assay, IC50 (chromogenic substrate Pefachrome t-PA); format: biochemical; conditions: Table 1; 0.25 nM thrombin, 300 μM substrate, pH 7.5, 30 minute incubation
Protocol: (§1) The ability of the compounds of the present invention to act as inhibitors of thrombin and plasmin catalytic activity was assessed by determining the concentration which inhibited enzyme activity by 50%, (IC50), using the purified human enzymes.
(§2) The buffer used for all assays was HBSA (10 mM HEPES, pH 7.5, 150 mM sodium chloride, 0.1% bovine serum albumin).
(§3) The assay for IC50 determinations was conducted by combining in appropriate wells of a Corning microtiter plate, 50 microliters of HBSA, 50 microliters of the test compound at a specified concentration (covering a broad concentration range) diluted in HBSA (or HBSA alone for Vo (uninhibited velocity) measurement), and 50 microliters of the enzyme diluted in HBSA. Following a 30 minute incubation at ambient temperature, 50 microliters of the substrate at the concentrations specified below, was added to the wells yielding a final total volume of 200 microliters. The initial velocity of chromogenic substrate hydrolysis was measured by the change in absorbance at 405 nm using a Thermo Max® Kinetic Microplate Reader over a 5 minute period in which less than 5% of the added substrate was utilized. The concentration of added inhibitor which caused a 50% decrease in the initial rate of hydrolysis was defined as the IC50 value.
Thrombin catalytic activity was determined using the chromogenic substrate Pefachrome t-PA (CH3 SO2 -D-hexahydrotyrosine-glycyl-L-arginine-p-nitroaniline, obtained from Pentapharm Ltd.). The substrate was made up in deionized water followed by dilution in HBSA prior to the assay in which the final concentration was 300 μM (about 10-times Km). Purified human alpha-thrombin was obtained from Enzyme Research Laboratories, Inc. The enzyme was diluted into HBSA prior to the assay in which the final concentration was 0.25 nM.

Purified human plasmin = Purified human plasmin (Homo sapiens, UniProt P00747); assay: in vitro plasmin inhibition assay, IC50 (chromogenic substrate S-2251); format: biochemical; conditions: Table 1; 1.0 nM plasmin, 300 μM substrate, pH 7.5, 30 minute incubation
Purified human plasmin, sequence (P00747 581-810 limits assumed): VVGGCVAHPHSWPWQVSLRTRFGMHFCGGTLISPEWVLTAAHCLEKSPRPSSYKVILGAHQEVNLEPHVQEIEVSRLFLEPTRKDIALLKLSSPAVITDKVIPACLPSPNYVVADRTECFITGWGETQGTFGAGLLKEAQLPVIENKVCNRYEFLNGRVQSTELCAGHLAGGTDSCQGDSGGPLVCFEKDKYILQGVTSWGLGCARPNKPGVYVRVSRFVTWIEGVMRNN
Purified human plasmin, sequence (P00747 97-580 limits assumed): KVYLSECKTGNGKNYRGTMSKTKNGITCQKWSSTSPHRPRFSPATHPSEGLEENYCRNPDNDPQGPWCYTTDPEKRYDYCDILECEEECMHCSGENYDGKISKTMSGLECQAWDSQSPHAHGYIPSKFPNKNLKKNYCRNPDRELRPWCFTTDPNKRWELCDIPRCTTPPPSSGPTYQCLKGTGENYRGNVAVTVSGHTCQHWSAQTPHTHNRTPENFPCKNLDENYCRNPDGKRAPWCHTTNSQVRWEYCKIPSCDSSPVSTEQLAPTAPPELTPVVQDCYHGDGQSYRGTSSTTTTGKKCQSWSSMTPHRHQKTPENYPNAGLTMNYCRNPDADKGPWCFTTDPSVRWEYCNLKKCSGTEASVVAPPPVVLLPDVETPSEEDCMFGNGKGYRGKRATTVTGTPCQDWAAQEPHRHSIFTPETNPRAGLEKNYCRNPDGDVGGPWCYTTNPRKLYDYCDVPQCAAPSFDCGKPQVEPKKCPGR
Protocol: as §1, §2, §3
Plasmin catalytic activity was determined using the chromogenic substrate, S-2251 [D-valyl-L-leucyl-L-lysine-p-nirtoanilide dihydrochloride], which was obtained from Kabi Diagnostica. The substrate was made up in deionized water followed by dilution in HBSA prior to the assay in which the final concentration was 300 μM (about 5-times Km). Purified human plasmin was obtained from Enzyme Research Laboratories, Inc. The enzyme was diluted into HBSA prior to assay in which the final concentration was 1.0 nM.

human alpha-thrombin = human alpha-thrombin (Homo sapiens, UniProt P00734); assay: Determination of inhibition constant Ki for thrombin (steady state velocities, Pefachrome t-PA); format: biochemical
Protocol: The ability of the compounds of the present invention to act as inhibitors of thrombin catalytic activity was assessed by determining their inhibition constant, Ki.
Enzyme activity was determined using the chromogenic substrate Pefachrome t-PA (CH3 SO2 -D-hexahydrotyrosine-glycyl-L-arginine-p-nitroaniline), obtained from Pentapharm Ltd. The substrate was reconstituted in deionized water prior to use. Purified human alpha-thrombin (3000U/mg specific activity) was obtained from Enzyme Research Laboratories, Inc. The buffer used for all assays was HBSA (10 mM HEPES, pH 7.5, 150 mM sodium chloride, 0.1% bovine serum albumin).
Velocities of chromogenic substrate hydrolysis which occurred over 40 minutes was measured by the change in absorbance at 405 nm using a Thermo Max® Kinetic Microplate Reader.
Ki values were determined for test compounds using the relationships developed by Williams and Morrison, Methods in Enzymology, 63:437 (1979) using steady state velocities (Vs) measured over 40 minutes. The extent of substrate hydrolysis was less than 5% over the course of this assay.
Table 2 below gives the Ki values for selected test compounds.

rat plasma = assay: activated partial thromboplastin time (APTT) in citrated rat plasma; format: biochemical; conditions: control clotting time 19.75 sec
Protocol: (§4) The ex Vivo anticoagulant effects of BzlSO2 -Met[S(O2)]-Pro-Arg-al was determined by measuring the prolongation of the activated partial thromboplastin time (APTT) over a broad concentration range of the added inhibitor, using pooled normal human and rat plasma. Fresh frozen citrated pooled normal human plasma was obtained from George King Biomedical, Overland Park, Kans. Pooled normal rat plasma was prepared from citrated whole blood collected from anesthetized rats using standard procedures. The plasma was flash frozen and stored at -80° C. until use. Measurements APTT was made using the Coag-A-Mate RA4 automated coagulometer (General Diagnostics, Organon Technica, Oklahoma City, Okla.) using the Automated APTT reagent (Organon Technica, Durham, N.C.) as the initiator of clotting according to the manufacturer's instructions.
(§5) The assay was conducted by making a series of dilutions of the test compounds in rapidly thawed plasma followed by adding 200 microliters to the wells of the assay carousel.
(§6) The elevation in APTT due to increasing concentration of compound is presented relative to the control clotting time for rat (19.75 sec) and human (28.3 sec) plasma which is set to a value of 1.0.

human plasma = assay: activated partial thromboplastin time (APTT) in citrated human plasma; format: biochemical; conditions: control clotting time 28.3 sec
Protocol: as §4, §5, §6

rat carotid artery = assay: Rat model of FeCl3-induced platelet-dependent arterial thrombosis; format: in vivo, rat (Male Harlan Sprague Dawley); conditions: for ED50: read-out: ED50 for thrombus prevention
[2] = Table 2, human alpha-thrombin 0.5 nM, steady state velocities over 40 minutes, read-out: Inhibitor Constants (Ki)

SMILES | IC50 [1] | IC50 (Purified human plasmin) | further results
N=C(N)NCCC[C@@H](C=O)NC(=O)[C@@H]1CCCN1C(=O)[C@H](CSCC(=O)O)NS(=O)(=O)Cc1ccccc1 | 13 nM | 490 nM | –
CCCCS(=O)(=O)N[C@@H](CCS(C)(=O)=O)C(=O)N1CCC[C@H]1C(=O)N[C@H](C=O)CCCNC(=N)N [Example 11, N-(1-butanesulfonyl)-L-methioninesulfone-L-proline-L-argininal] | 1.6 nM | 199 nM | –
CS(=O)(=O)CC[C@H](NS(=O)(=O)NC1CCCCC1)C(=O)N1CCC[C@H]1C(=O)N[C@H](C=O)CCCNC(=N)N [ChxNH--SO2 --Met[S(O2)]--Pro--Arg-al] | 146 nM | 2600 nM | –
CCCCS(=O)(=O)N[C@@H](CS(=O)(=O)CC(=O)O)C(=O)N1CCC[C@H]1C(=O)N[C@H](C=O)CCCNC(=N)N | 3 nM | 110 nM | –
COC(=O)c1ccccc1S(=O)(=O)N[C@@H](CCS(C)(=O)=O)C(=O)N1CCC[C@H]1C(=O)N[C@H](C=O)CCCNC(=N)N [2-CMPhSO2 --Met[S(O2)]--Pro--Arg-al] | 0.81 nM | 200 nM | –
CS(=O)(=O)CC[C@H](NS(=O)(=O)CC1CCCCC1)C(=O)N1CCC[C@H]1C(=O)N[C@H](C=O)CCCNC(=N)N [Example 18, N-cyclohexylmethanesulfonyl-L-methionine sulfone-L-proline-L-argininal] | 0.66 nM | 30 nM | –
CS(=O)(=O)CC[C@H](NS(=O)(=O)c1cccc2ccccc12)C(=O)N1CCC[C@H]1C(=O)N[C@H](C=O)CCCNC(=N)N [Example 21, N-(1-naphthylenesulfonyl)-L-methionine sulfone-L-proline-L-argininal] | 0.78 nM | > 25 nM | –
CC1CNc2c(cccc2S(=O)(=O)N[C@@H](CCCNC(=N)N)C(=O)N2CC[C@@H](C)C[C@@H]2C(=O)O)C1 (stereo partly drawn) [Argatroban, 2R,4R-4-methyl-1-[N-2-(3-methyl-1,2,3,4-tetrahydro-8-quinolinesulfonyl)-L-argininal]-2-piperdinecarboxylic acid, reference compound] | – | – | ED50 (rat carotid artery; dose that prevents the incidence of complete thrombotic occlusion in 50% of animals tested, FeCl3 model, rat): 3.8 mg/kg
CS(=O)(=O)CC[C@H](NS(=O)(=O)c1ccc2ccccc2c1)C(=O)N1CCC[C@H]1C(=O)N[C@H](C=O)CCCNC(=N)N [Example 24, N-(2-naphthylenesulfonyl)-L-methionine sulfone-L-proline-L-argininal] | 0.58 nM | 35 nM | Ki (human alpha-thrombin; [2]): 0.135 nM

Now from value to molecule, other results behind:

IC50 [1] | IC50 (Purified human plasmin) | SMILES | further results
1.4 nM | > 250 nM | CS(=O)(=O)C[C@H](NS(=O)(=O)c1ccc2ccccc2c1)C(=O)N1CCC[C@H]1C(=O)N[C@H](C=O)CCCNC(=N)N [Example 46, N-(2-naphthalenesulfonyl)-S-methyl-L-cysteine sulfone-L-proline-L-argininal] | –
1 nM | 86 nM | CS(=O)(=O)CC[C@H](NS(=O)(=O)Cc1ccccc1)C(=O)N1CCC[C@H]1C(=O)N[C@H](C=O)CCCNC(=N)N [Example 27, N-benzylsulfonyl-L-methionine sulfone-L-proline-L-argininal] | Ki (human alpha-thrombin; [2]): 1.06 nM; Ki (human alpha-thrombin; Table 4, determined using human alphathrombin (footnote a), read-out: Ki): 1.06 nM; prolongation of APTT (rat plasma): prolonged the APTT in a dose dependent manner; prolongation of APTT (human plasma): prolonged the APTT in a dose dependent manner; incidence of thrombotic occlusion (in words) (rat carotid artery; FeCl3 model, rat, over all doses of Table 3): reduction in the incidence of thrombotic occlusion; ED50 (rat carotid artery; Rattus norvegicus): 0.7 mg/kg
0.742 nM | 388 nM | CCCC(CCC)C(=O)N[C@@H](CS(=O)(=O)Cc1ccc(C(=O)O)cc1)C(=O)N1CCC[C@H]1C(=O)N[C@H](C=O)CCCNC(=N)N [Example 144, N-2-propylpentylamide-L-cysteine-S-sulfone (p-toluic acid) -L-proline-arginal aldehyde] | –
2.6 nM | 30 nM | CC1(C)[C@@H]2CC[C@@]1(CS(=O)(=O)N[C@@H](CCS(C)(=O)=O)C(=O)N1CCC[C@H]1C(=O)N[C@H](C=O)CCCNC(=N)N)C(=O)C2 [d-Camphor--SO2 --Met[S(O2)]--Pro--Arg-al] | –
5.5 nM | 500 nM | CCCC(CCC)C(=O)N[C@@H](CCS(C)(=O)=O)C(=O)N1CCC[C@H]1C(=O)N[C@H](C=O)CCCNC(=N)N [Example 33, N-(2-propylpentanoyl)-L-methionine sulfone-L-proline-L-argininal] | Ki (human alpha-thrombin; [2]): 4 nM
5.1 nM | 2800 nM | CCCC(CCC)C(=O)N[C@@H](CS(C)(=O)=O)C(=O)N1CCC[C@H]1C(=O)N[C@H](C=O)CCCNC(=N)N [Example 43, N-(2-propylpentanoyl)-S-methyl-L-cysteine sulfone-L-proline-L-argininal] | –
0.56 nM | 61 nM | COC(=O)CS(=O)(=O)C[C@H](NS(=O)(=O)c1ccc2ccccc2c1)C(=O)N1CCC[C@H]1C(=O)N[C@H](C=O)CCCNC(=N)N [Example 69, N-(2-naphthylenesulfonyl)-S-(methyl acetate)-L-cysteine sulfone-L-proline-L-argininal] | –
1.8 nM | > 250 nM | CCCCS(=O)(=O)N[C@@H](CS(C)(=O)=O)C(=O)N1CCC[C@H]1C(=O)N[C@H](C=O)CCCNC(=N)N [Example 40, N-(1-butanesulfonyl)-S-methyl-L-cysteine Sulfone-L-proline-L-argininal] | –
13 nM | 490 nM | N=C(N)NCCC[C@@H](C=O)NC(=O)[C@@H]1CCCN1C(=O)[C@H](CS(=O)(=O)CC(=O)O)NS(=O)(=O)Cc1ccccc1 [Example 56, N-benzylsulfonyl-S-(carboxymethyl)-L-cysteine sulfone-L-proline-L-argininal] | –
1.6 nM | 220 nM | CCCC(CCC)C(=O)N[C@@H](CS(=O)(=O)CC(=O)O)C(=O)N1CCC[C@H]1C(=O)N[C@H](C=O)CCCNC(=N)N [Example 59, N-(2-propylpentanoyl)-S-(carboxymethyl)-L-cysteine sulfone-L-proline-L-argininal] | –
1.7 nM | 250 to 2500 nM | N=C(N)NCCC[C@@H](C=O)NC(=O)[C@@H]1CCCN1C(=O)[C@H](CS(=O)(=O)Cc1ccc(C(=O)O)cc1)NS(=O)(=O)Cc1ccccc1 [Example 139, N-benzylsulfonamide-L-cysteine-S-sulfone-(p-toluic acid) -L-proline-argininal aldehyde] | –
3.1 nM | 250 nM | CS(=O)(=O)C[C@H](NS(=O)(=O)c1cccc2ccccc12)C(=O)N1CCC[C@H]1C(=O)N[C@H](C=O)CCCNC(=N)N [Example 49, N-(1-naphthalenesulfonyl)-S-methyl-L-cysteine sulfone-L-proline-L-argininal] | –
